Reference: patent US7544657B2, “Stabilized Exendin-4 compounds” (Zealand Pharma A/S, priority 2002, dated 2009)

Assays:
[1] = system: diabetic db/db mice; details: given systemically; cited from earlier work
[2] = system: db/db mice; assay: Oral glucose tolerance test (OGTT); assay type: in vivo; details: OGTT in db/db mice, compound i.p. 15 min before oral glucose 1 g/kg, ED50 based on curve fits of AUC0-240 min
Experimental: Oral Glucose Tolerance Test (OGTT)
The anti diabetic effect of the present compounds was tested in an oral glucose tolerance test (OGTT). In short, animals were fasted over night, and blood samples were taken from the tip of the tail and the blood glucose measured. The whole blood glucose (mM) concentration was analysed by the immobilised glucose oxidase method using a drop of blood (<5 μl; Elite Autoanalyser, Bayer, Denmark) following the manufacturer's manual. The animals were kept fasted throughout the test. Immediately after the initial blood sample (fasting blood glucose level) test compound or vehicle was administered i.p. Fifteen minutes later an oral dose of glucose ((1 g/kg) Sigma, St. Louis, Mo., U.S.A.)), dissolved in phosphate buffer (pH=7.40) was given, and the animals were returned to their home cages (time=0). […] To analyse the effects of the test compounds on oral glucose tolerance the absolute difference in BG from baseline (fasting BG) was calculated for each time point. The area under the curve (AUC) (FIG. 1-8) for the whole experiment (AUC0-120 min) or (AUC0-240 min) was determined using the trapezoid method. Before starting the experimental series an OGTT was used to stratify animals into groups of 9-10 animals displaying similar glucose tolerances in all groups. Animals displaying excessive glucose excursion 30 min after glucose loading (BG>33 mmol/l) were excluded from the study.

[3] = Table 2, another set of experiments

## Exendin-4
[1]
  lowering of blood glucose levels: 40%

## des Pro^36 Exendin-4 (1-39)-K6 [Compound 1]
[2]; Table 1
  ED50: 0.049 nmol/kg
[2]; [3]
  ED50: 0.073 nmol/kg

## Compound 6: Stabilized derivative of Compound 1 (SEQ ID NO: 6), formed by incubation in NH4HCO3 pH 7.9 at 40° C. (HGEGTFTSDLSKQMEEEAVRLFIEWLKDGGPSSGAPPSKKKKKK)
[2]; Table 1
  ED50: 0.013 nmol/kg

## Compound 14: Stabilized derivative of Compound 1 (SEQ ID NO: 14), formed by incubation in NH4HCO3 pH 7.9 at 40° C. (HGEGTFTSDLSKQMEEEAVRLFIEWLKDGGPSSGAPPSKKKKKK)
[2]; Table 1
  ED50: 0.55 nmol/kg

## Compound 5: Stabilized derivative of Compound 1 (SEQ ID NO: 5), formed by incubation in NH4HCO3 pH 7.9 at 40° C. (HGEGTFTSDLSKQMEEEAVRLFIEWLKDGGPSSGAPPSKKKKKK)
[2]; [3]
  ED50: 0.043 nmol/kg

## Compound 2: Stabilized derivative of Compound 1 (SEQ ID NO: 2), obtained by exposing Compound 1 to H2O2 (HGEGTFTSDLSKQMEEEAVRLFIEWLKDGGPSSGAPPSKKKKKK)
[2]; [3]
  ED50: 0.011 nmol/kg
